For five cell lines, relative viability results are on record in the supplement of paper PMC10307832.

Experiment in all cases: relative viability (nuclei count vs DMSO), 5 days (fraction); higher = more cells survive
Compound in the test “Venetoclax + OSI-027”: CC1(C)CCC(CN2CCN(c3ccc(C(=O)NS(=O)(=O)c4ccc(NCC5CCOCC5)c([N+](=O)[O-])c4)c(Oc4cnc5[nH]ccc5c4)c3)CC2)=C(c2ccc(Cl)cc2)C1 [Venetoclax] + COc1cccc2cc(-c3nc([C@H]4CC[C@H](C(=O)O)CC4)n4ncnc(N)c34)[nH]c12 [OSI-027] (partner 0.5 µM)
In outline: (§1)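 Relative viability divides the nuclei count in treated wells by that in vehicle wells. Lung cancer cell lines were seeded in 1536-well plates, dosed by pin tool the next day, and fixed and stained after 5 days in one step with final 0.05% Triton X-100, 1% formaldehyde and 1 ug/ml Hoechst. Dosing was a single drug or a fixed anchor-drug dose plus five library-drug doses (not always all listed) in √10 steps, and values are medians of duplicate plates imaged at 4×.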

Compound in the test “Venetoclax + Tozasertib”: CC1(C)CCC(CN2CCN(c3ccc(C(=O)NS(=O)(=O)c4ccc(NCC5CCOCC5)c([N+](=O)[O-])c4)c(Oc4cnc5[nH]ccc5c4)c3)CC2)=C(c2ccc(Cl)cc2)C1 [Venetoclax] + Cc1cc(Nc2cc(N3CCN(C)CC3)nc(Sc3ccc(NC(=O)C4CC4)cc3)n2)n[nH]1 [Tozasertib] (partner 0.1 µM)
In short, it runs like this:
as §1

Compound in the test “Venetoclax + Linsitinib”: CC1(C)CCC(CN2CCN(c3ccc(C(=O)NS(=O)(=O)c4ccc(NCC5CCOCC5)c([N+](=O)[O-])c4)c(Oc4cnc5[nH]ccc5c4)c3)CC2)=C(c2ccc(Cl)cc2)C1 [Venetoclax] + C[C@]1(O)C[C@@H](c2nc(-c3ccc4ccc(-c5ccccc5)nc4c3)c3c(N)nccn32)C1 [Linsitinib] (partner 1 µM)
In short, it runs like this: as §1

Compound in the test “Venetoclax + Pictilisib”: CC1(C)CCC(CN2CCN(c3ccc(C(=O)NS(=O)(=O)c4ccc(NCC5CCOCC5)c([N+](=O)[O-])c4)c(Oc4cnc5[nH]ccc5c4)c3)CC2)=C(c2ccc(Cl)cc2)C1 [Venetoclax] + CS(=O)(=O)N1CCN(Cc2cc3nc(-c4cccc5[nH]ncc45)nc(N4CCOCC4)c3s2)CC1 [Pictilisib] (partner 1 µM)
In short, it runs like this:
as §1

For the cell line PC-14, the relative viability in the test with Venetoclax + OSI-027 (first compound 0.01 µM) was determined as 0.735; with Venetoclax + OSI-027 (first compound 0.03162 µM), 0.875; with Venetoclax + OSI-027 (first compound 0.1 µM), 0.696; in the test with Venetoclax + OSI-027 (first compound 0.3162 µM), 0.855; with Venetoclax + OSI-027 (first compound 1 µM) it was 0.722; with Venetoclax + Tozasertib (first compound 0.01 µM), 0.646. For the same cell line, the relative viability was determined as 0.601 in the test with Venetoclax + Tozasertib (first compound 0.03162 µM); 0.576 with Venetoclax + Tozasertib (first compound 0.1 µM); 0.553 with Venetoclax + Tozasertib (first compound 0.3162 µM); 0.531 in the test with Venetoclax + Tozasertib (first compound 1 µM); 0.925 with Venetoclax + Linsitinib (first compound 0.01 µM); 0.993 with Venetoclax + Linsitinib (first compound 0.03162 µM). Moreover, the relative viability with Venetoclax + Linsitinib (first compound 0.1 µM) was 1.04; with Venetoclax + Linsitinib (first compound 0.3162 µM) it was 0.818; with Venetoclax + Linsitinib (first compound 1 µM), 0.811; with Venetoclax + Pictilisib (first compound 0.01 µM) it was 0.588; with Venetoclax + Pictilisib (first compound 0.03162 µM) it was 0.649; with Venetoclax + Pictilisib (first compound 0.1 µM) it was 0.693. Moreover, the results for the relative viability with Venetoclax + Pictilisib (first compound 0.3162 µM) and in the test with Venetoclax + Pictilisib (first compound 1 µM) were 0.81 and 0.604, respectively.

As for RERF-LC-KJ, the relative viability turned out to be 0.555 with Venetoclax + OSI-027 (first compound 0.01 µM); 0.552 in the test with Venetoclax + OSI-027 (first compound 0.03162 µM); 0.577 with Venetoclax + OSI-027 (first compound 0.1 µM); 0.577 in the test with Venetoclax + OSI-027 (first compound 0.3162 µM); 0.521 with Venetoclax + OSI-027 (first compound 1 µM); 0.444 in the test with Venetoclax + Tozasertib (first compound 0.01 µM). Further, the relative viability with Venetoclax + Tozasertib (first compound 0.03162 µM) is 0.504; in the test with Venetoclax + Tozasertib (first compound 0.1 µM), 0.533; with Venetoclax + Tozasertib (first compound 0.3162 µM), 0.45; with Venetoclax + Tozasertib (first compound 1 µM), 0.443; with Venetoclax + Linsitinib (first compound 0.01 µM) it was 0.792; with Venetoclax + Linsitinib (first compound 0.03162 µM), 0.899. Besides, the relative viability in the test with Venetoclax + Linsitinib (first compound 0.1 µM) is 0.904; with Venetoclax + Linsitinib (first compound 0.3162 µM), 0.883; with Venetoclax + Linsitinib (first compound 1 µM), 0.85; with Venetoclax + Pictilisib (first compound 0.01 µM) it was 0.523; with Venetoclax + Pictilisib (first compound 0.03162 µM), 0.607; in the test with Venetoclax + Pictilisib (first compound 0.1 µM), 0.512. For the same cell line, the relative viability with Venetoclax + Pictilisib (first compound 0.3162 µM) was determined as 0.513; with Venetoclax + Pictilisib (first compound 1 µM), 0.571.

SK-LU-1: the relative viability with Venetoclax + OSI-027 (first compound 0.01 µM) came out at 0.38; in the test with Venetoclax + OSI-027 (first compound 0.03162 µM), 0.436; in the test with Venetoclax + OSI-027 (first compound 0.1 µM), 0.345; with Venetoclax + OSI-027 (first compound 0.3162 µM), 0.365; with Venetoclax + OSI-027 (first compound 1 µM) it was 0.329; with Venetoclax + Tozasertib (first compound 0.01 µM), 0.341. Moreover, the relative viability with Venetoclax + Tozasertib (first compound 0.03162 µM) amounted to 0.316; with Venetoclax + Tozasertib (first compound 0.1 µM) it was 0.275; with Venetoclax + Tozasertib (first compound 0.3162 µM), 0.336; in the test with Venetoclax + Tozasertib (first compound 1 µM) it was 0.286; with Venetoclax + Linsitinib (first compound 0.01 µM) it was 1.01; with Venetoclax + Linsitinib (first compound 0.03162 µM), 1.25. For the same cell line, the relative viability with Venetoclax + Linsitinib (first compound 0.1 µM) worked out at 0.998; in the test with Venetoclax + Linsitinib (first compound 0.3162 µM), 1.04; with Venetoclax + Linsitinib (first compound 1 µM), 1.13; in the test with Venetoclax + Pictilisib (first compound 0.01 µM), 0.558; in the test with Venetoclax + Pictilisib (first compound 0.03162 µM), 0.634; in the test with Venetoclax + Pictilisib (first compound 0.1 µM), 0.524. The relative viability in the test with Venetoclax + Pictilisib (first compound 0.3162 µM) turned out to be 0.592; with Venetoclax + Pictilisib (first compound 1 µM), 0.511.

Turning to SK-MES-1, the relative viability amounted to 0.61 with Venetoclax + OSI-027 (first compound 0.01 µM); 0.626 in the test with Venetoclax + OSI-027 (first compound 0.03162 µM); 0.599 with Venetoclax + OSI-027 (first compound 0.1 µM); 0.572 in the test with Venetoclax + OSI-027 (first compound 0.3162 µM); 0.518 with Venetoclax + OSI-027 (first compound 1 µM); 0.824 in the test with Venetoclax + Tozasertib (first compound 0.01 µM). Further, the relative viability with Venetoclax + Tozasertib (first compound 0.03162 µM) was 0.968; with Venetoclax + Tozasertib (first compound 0.1 µM) it was 0.958; in the test with Venetoclax + Tozasertib (first compound 0.3162 µM) it was 0.852; in the test with Venetoclax + Tozasertib (first compound 1 µM), 0.708; in the test with Venetoclax + Linsitinib (first compound 0.01 µM), 0.995; with Venetoclax + Linsitinib (first compound 0.03162 µM), 1.09. The relative viability with Venetoclax + Linsitinib (first compound 0.1 µM) was 1.07; with Venetoclax + Linsitinib (first compound 0.3162 µM), 1.06; with Venetoclax + Linsitinib (first compound 1 µM), 0.963; in the test with Venetoclax + Pictilisib (first compound 0.01 µM) it was 0.345; with Venetoclax + Pictilisib (first compound 0.03162 µM), 0.398; in the test with Venetoclax + Pictilisib (first compound 0.1 µM) it was 0.315. Further, the relative viability with Venetoclax + Pictilisib (first compound 0.3162 µM) was 0.334; with Venetoclax + Pictilisib (first compound 1 µM), 0.349.

Take SW 1573: the relative viability with Venetoclax + OSI-027 (first compound 0.01 µM) stood at 0.573; with Venetoclax + OSI-027 (first compound 0.03162 µM), 0.658; in the test with Venetoclax + OSI-027 (first compound 0.1 µM), 0.585; in the test with Venetoclax + OSI-027 (first compound 0.3162 µM), 0.506; with Venetoclax + OSI-027 (first compound 1 µM), 0.529; in the test with Venetoclax + Tozasertib (first compound 0.01 µM), 0.217. Further, the relative viability with Venetoclax + Tozasertib (first compound 0.03162 µM) came to 0.206; in the test with Venetoclax + Tozasertib (first compound 0.1 µM), 0.207; with Venetoclax + Tozasertib (first compound 0.3162 µM) it was 0.137; with Venetoclax + Tozasertib (first compound 1 µM), 0.171; in the test with Venetoclax + Linsitinib (first compound 0.01 µM), 0.93; with Venetoclax + Linsitinib (first compound 0.03162 µM), 0.766. Moreover, the relative viability with Venetoclax + Linsitinib (first compound 0.1 µM) worked out at 0.916; with Venetoclax + Linsitinib (first compound 0.3162 µM), 0.835; in the test with Venetoclax + Linsitinib (first compound 1 µM), 0.891; in the test with Venetoclax + Pictilisib (first compound 0.01 µM), 0.471; in the test with Venetoclax + Pictilisib (first compound 0.03162 µM), 0.615; with Venetoclax + Pictilisib (first compound 0.1 µM), 0.435. Also, the relative viability was 0.459 with Venetoclax + Pictilisib (first compound 0.3162 µM) and 0.487 in the test with Venetoclax + Pictilisib (first compound 1 µM).
